Data reported in article PMC11003488 (Journal of Enzyme Inhibition and Medicinal Chemistry, 2023).

Columns and labels:
MCF7 = test: NCI-60 SRB growth inhibition, one-dose and five-dose; type: cell-based; details: Homo sapiens
EKVX = test: as above; type: cell-based; details: Homo sapiens
COLO 205 = test: as above; type: cell-based; details: Homo sapiens
SR = test: as above; type: cell-based; details: Homo sapiens
HOP-62 = test: as above; type: cell-based; details: Homo sapiens
MDA-MB-468 = test: as above; type: cell-based; details: Homo sapiens
SF-268 = test: as above; type: cell-based; details: Homo sapiens
MALME-3M = test: as above; type: cell-based; details: Homo sapiens
MOLT-4 = test: as above; type: cell-based; details: Homo sapiens
OVCAR-5 = test: as above; type: cell-based; details: Homo sapiens
T-47D = test: as above; type: cell-based; details: Homo sapiens, T47D
SK-MEL-28 = test: as above; type: cell-based; details: Homo sapiens
PC-3 = test: as above; type: cell-based; details: Homo sapiens
HCC-2998 = test: as above; type: cell-based; details: Homo sapiens
IGROV1 = test: as above; type: cell-based; details: Homo sapiens
HOP-92 = test: as above; type: cell-based; details: Homo sapiens
K-562 = test: as above; type: cell-based; details: Homo sapiens
HCT-15 = test: as above; type: cell-based; details: Homo sapiens
CAKI-1 = test: as above; type: cell-based; details: Homo sapiens
OVCAR-3 = test: as above; type: cell-based; details: Homo sapiens
RXF 393 = test: as above; type: cell-based; details: Homo sapiens
OVCAR-8 = test: as above; type: cell-based; details: Homo sapiens
U251 = test: as above; type: cell-based; details: Homo sapiens
HL-60(TB) = test: cells; type: cell-based; details: Homo sapiens
A498 = test: NCI-60 SRB growth inhibition, one-dose and five-dose; type: cell-based; details: Homo sapiens
HS 578 T = test: as above; type: cell-based; details: Homo sapiens
HCT-116 = test: as above; type: cell-based; details: Homo sapiens
NCI-H522 = test: as above; type: cell-based; details: Homo sapiens
DU-145 = test: as above; type: cell-based; details: Homo sapiens
NCI-H226 = test: as above; type: cell-based; details: Homo sapiens
OVCAR-4 = test: as above; type: cell-based; details: Homo sapiens
SF-539 = test: as above; type: cell-based; details: Homo sapiens
BT-549 = test: as above; type: cell-based; details: Homo sapiens
LOX IMVI = test: as above; type: cell-based; details: Homo sapiens
A549/ATCC = test: as above; type: cell-based; details: Homo sapiens
SK-MEL-5 = test: as above; type: cell-based; details: Homo sapiens
SK-MEL-2 = test: as above; type: cell-based; details: Homo sapiens
CCRF-CEM = test: as above; type: cell-based; details: Homo sapiens
[1] = test system: NCI 60-cell line panel (full panel); test: NCI-60 SRB growth inhibition, full panel mean / MG-MID; type: cell-based, human
KM12 = test: NCI-60 SRB growth inhibition, one-dose and five-dose; type: cell-based; details: Homo sapiens
SNB-19 = test: as above; type: cell-based; details: Homo sapiens
MDA-MB-435 = test: as above; type: cell-based; details: Homo sapiens
[2] = read-out: percent growth inhibition

## Cc1ccc(CNc2cccc(C(=O)/C=C/c3cccnc3)c2)cc1 [Compound 5a, (E)-1–(3-((4-methylbenzyl)amino)phenyl)-3-(pyridin-3-yl)prop-2-en-1-one]
MCF7; MCF7
  GI50: 2.79 µM
MCF7; MCF7, read-out: percent growth inhibition
  inhibition at 10 µM: 148%
EKVX
  GI50: 12.8 µM
EKVX; [2]
  inhibition at 10 µM: 52.3%
COLO 205; COLO 205
  GI50: 17.1 µM
COLO 205; COLO 205, read-out: percent growth inhibition
  inhibition at 10 µM: 36.9%
SR
  GI50: 2.82 µM
SR; [2]
  inhibition at 10 µM: 85.6%
HOP-62; HOP-62
  GI50: 15.6 µM
HOP-62; HOP-62, read-out: percent growth inhibition
  inhibition at 10 µM: 15.1%
MDA-MB-468; MDA-MB-468
  GI50: 6.3 µM
MDA-MB-468; MDA-MB-468, read-out: percent growth inhibition
  inhibition at 10 µM: 153%
SF-268; SF-268
  GI50: 12.8 µM
SF-268; SF-268, read-out: percent growth inhibition
  inhibition at 10 µM: 38.2%
MALME-3M
  GI50: 13.6 µM
MALME-3M; [2]
  inhibition at 10 µM: 127%
MOLT-4; MOLT-4
  GI50: 3.54 µM
MOLT-4; MOLT-4, read-out: percent growth inhibition
  inhibition at 10 µM: 57.3%
OVCAR-5; OVCAR-5
  GI50: 15.6 µM
OVCAR-5; OVCAR-5, read-out: percent growth inhibition
  inhibition at 10 µM: 52.2%
T-47D
  GI50: 9.84 µM
T-47D; [2]
  inhibition at 10 µM: 105%
SK-MEL-28; SK-MEL-28
  GI50: 14.7 µM
SK-MEL-28; SK-MEL-28, read-out: percent growth inhibition
  inhibition at 10 µM: 71.6%
PC-3; PC-3
  GI50: 14.2 µM
PC-3; PC-3, read-out: percent growth inhibition
  inhibition at 10 µM: 84.8%
HCC-2998; HCC 2998
  GI50: 14.1 µM
HCC-2998; HCC 2998, read-out: percent growth inhibition
  inhibition at 10 µM: 52.8%
IGROV1; IGROV-1
  GI50: 13.6 µM
IGROV1; IGROV-1, read-out: percent growth inhibition
  inhibition at 10 µM: 44.5%
HOP-92; HOP-92
  GI50: 10.9 µM
HOP-92; HOP-92, read-out: percent growth inhibition
  inhibition at 10 µM: 41.8%
K-562; K562
  GI50: 3.09 µM
K-562; K562, read-out: percent growth inhibition
  inhibition at 10 µM: 93.6%
HCT-15; HCT-15
  GI50: 4.15 µM
HCT-15; HCT-15, read-out: percent growth inhibition
  inhibition at 10 µM: 156%
CAKI-1; CAKI-1
  GI50: 11.7 µM
CAKI-1; CAKI-1, read-out: percent growth inhibition
  inhibition at 10 µM: 36.7%
OVCAR-3; OVCAR-3
  GI50: 7.19 µM
OVCAR-3; OVCAR-3, read-out: percent growth inhibition
  inhibition at 10 µM: 84.8%
RXF 393; RXF 393
  GI50: 12.3 µM
RXF 393; RXF 393, read-out: percent growth inhibition
  inhibition at 10 µM: 67.9%
OVCAR-8; OVCAR-8
  GI50: 13.1 µM
OVCAR-8; OVCAR-8, read-out: percent growth inhibition
  inhibition at 10 µM: 88.3%
U251; U-251
  GI50: 9.87 µM
U251; U-251, read-out: percent growth inhibition
  inhibition at 10 µM: 193%
HL-60(TB); HL-60
  GI50: 6.25 µM
HL-60(TB); HL-60, read-out: percent growth inhibition
  inhibition at 10 µM: 54.6%
A498; A498
  GI50: 14.4 µM
A498; A498, read-out: percent growth inhibition
  inhibition at 10 µM: 14.1%
HS 578 T
  GI50: 14.6 µM
HS 578 T; [2]
  inhibition at 10 µM: 69.2%
HCT-116; HCT-116, HCT-116, five-dose screening
  GI50: 2.07 µM
HCT-116; HCT-116, read-out: percent growth inhibition
  inhibition at 10 µM: 189%
NCI-H522; NCI-H522
  GI50: 13.8 µM
NCI-H522; NCI-H522, read-out: percent growth inhibition
  inhibition at 10 µM: 134%
DU-145; DU-145
  GI50: 13.3 µM
DU-145; DU-145, read-out: percent growth inhibition
  inhibition at 10 µM: 53.9%
NCI-H226; NCI-H226
  GI50: 11.9 µM
NCI-H226; NCI-H226, read-out: percent growth inhibition
  inhibition at 10 µM: 37.9%
OVCAR-4; OVCAR-4
  GI50: 6.81 µM
OVCAR-4; OVCAR-4, read-out: percent growth inhibition
  inhibition at 10 µM: 63.8%
SF-539; SF-539
  GI50: 15.6 µM
SF-539; SF-539, read-out: percent growth inhibition
  inhibition at 10 µM: 152%
BT-549; BT-549
  GI50: 10.4 µM
BT-549; BT-549, read-out: percent growth inhibition
  inhibition at 10 µM: 111%
LOX IMVI
  GI50: 1.88 µM
LOX IMVI; [2]
  inhibition at 10 µM: 195%
A549/ATCC; A549
  GI50: 17.3 µM
A549/ATCC; A549, read-out: percent growth inhibition
  inhibition at 10 µM: 27.2%
SK-MEL-5; SK-MEL-5
  GI50: 8.96 µM
SK-MEL-5; SK-MEL-5, read-out: percent growth inhibition
  inhibition at 10 µM: 74.9%
SK-MEL-2; SK-MEL-2
  GI50: 14.3 µM
SK-MEL-2; SK-MEL-2, read-out: percent growth inhibition
  inhibition at 10 µM: 35.9%
CCRF-CEM
  GI50: 2.58 µM
CCRF-CEM; [2]
  inhibition at 10 µM: 53.1%
[1]; Homo sapiens, 60 cell, read-out: Full panel GI50 mean
  GI50: 10.8 µM
[1]; mean over NCI-60 panel, single dose 10 µM
  Full panel Mean GI %: 82.76%
KM12; KM12
  GI50: 8.36 µM
KM12; KM12, read-out: percent growth inhibition
  inhibition at 10 µM: 155%
SNB-19; SNB-19
  GI50: 14 µM
SNB-19; SNB-19, read-out: percent growth inhibition
  inhibition at 10 µM: 34.9%
MDA-MB-435; MDA-MB-435
  GI50: 3.04 µM
MDA-MB-435; MDA-MB-435, read-out: percent growth inhibition
  inhibition at 10 µM: 92%
